Assay results as given in ChEMBL document CHEMBL5579836, “Extensive targeting of chemical space at the prime side of ketoamide inhibitors of rhomboid proteases by branched substituents empowers their selectivity and potency” (Eur J Med Chem, 2024).
Starred links: 1 amine or outer side, 2 acyl side, 3 side chain; linkers in the order of their positions; H or OH if unused. Non-standard residues stand in square brackets, D forms with d. Residues, ends and D or L forms follow the SMILES beside them. *: point of attachment. Pheol(OBn) = c1ccc(COC[C@H](Cc2ccccc2)N*)cc1; NH(4-phenylbutyl) = c1ccc(CCCCN*)cc1; X1 = C[C@H](N[*:1])C(=O)C(=O)[*:2]

Columns and labels:
[1] = molecular target: T1, Rhomboid protease GlpG (Escherichia coli (strain K12), UniProt P09391); experiment: Inhibition of Escherichia coli GlpG extracted from Escherichia coli C43(DE3) using KSp96 as substrate incubated for 1 hr by fluorescence based assay; conditions: for Ki: read-out: Ki(app)
T1 sequence (P09391 whole entry): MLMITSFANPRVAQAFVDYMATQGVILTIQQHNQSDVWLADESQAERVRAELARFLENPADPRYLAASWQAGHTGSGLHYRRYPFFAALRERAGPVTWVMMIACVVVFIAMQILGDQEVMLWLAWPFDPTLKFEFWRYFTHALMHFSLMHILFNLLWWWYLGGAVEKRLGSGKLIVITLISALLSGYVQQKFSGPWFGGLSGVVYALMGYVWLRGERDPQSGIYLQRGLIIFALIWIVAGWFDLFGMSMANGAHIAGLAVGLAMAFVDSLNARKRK

[2] = molecular target: T1, Rhomboid protease GlpG; experiment: Inhibition of GlpG in wild-type Escherichia coli MC4100 using MBP-Flag-LacYTMD2-Trx as substrate
[3] = molecular target: T2, Presenilin-associated rhomboid-like protein, mitochondrial (Homo sapiens, UniProt Q9H300); experiment: Inhibition of tetracycline-inducible FLAG-tagged human PARL stably transfected in HEK293T harboring FITR/PARL KO; type: cell-based
T2 sequence (Q9H300 whole entry): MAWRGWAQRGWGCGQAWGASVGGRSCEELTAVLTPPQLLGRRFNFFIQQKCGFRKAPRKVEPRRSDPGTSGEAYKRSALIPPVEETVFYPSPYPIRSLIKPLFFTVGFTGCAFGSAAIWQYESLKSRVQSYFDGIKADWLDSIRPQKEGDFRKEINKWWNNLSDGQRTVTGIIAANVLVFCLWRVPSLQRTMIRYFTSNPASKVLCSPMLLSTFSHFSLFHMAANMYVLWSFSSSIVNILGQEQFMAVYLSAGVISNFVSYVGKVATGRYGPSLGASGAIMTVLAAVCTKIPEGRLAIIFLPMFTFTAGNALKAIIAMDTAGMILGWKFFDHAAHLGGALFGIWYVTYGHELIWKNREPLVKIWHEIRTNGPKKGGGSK

[4] = Selectivity index, ratio of IC50 for rhomboid (unknown origin) to IC50 for recombinant human PARL using KSp106 as substrate
[5] = Selectivity index, ratio of IC50 for rhomboid (unknown origin) to IC50 for Strep-tagged recombinant human RHBDL2 extracted from Expi293 cells using KSp118 as substrate
[6] = Selectivity index, ratio of IC50 for rhomboid (unknown origin) to IC50 for Escherichia coli GlpG extracted from Escherichia coli C43(DE3) using KSp96 as substrate
[7] = Inhibition of Strep-tagged recombinant human RHBDL2 extracted from Expi293 cells using KSp118 as substrate incubated for 1 hr by fluorescence based assay; type: cell-free

| Compound | IC50 [1] | EC50 [2] | IC50 [7] | further results |
| --- | --- | --- | --- | --- |
| C[C@H](NC(=O)[C@H](Cc1c[nH]cn1)NC(=O)[C@H](CCCNC(=N)N)NC(=O)CCc1ccccc1)C(=O)C(=O)N[C@H](COCc1ccccc1)Cc1ccccc1 | 2 nM | 424 nM |  |  |
| CC(=O)N[C@@H](C)C(=O)N[C@H](C(=O)N[C@@H](Cc1ccccc1)C(=O)N[C@@H](CC(C)C)C(=O)N[C@@H](C)C(=O)C(=O)NCCCCc1ccccc1)C(C)C (Ac-AVFL[X1]-{NH(4-phenylbutyl)}) | 300 nM |  | 32800 nM | EC50 [3]: 445 nM; Ratio IC50 [4]: 1; Ratio IC50 [5]: 1150; Ratio IC50 [6]: 10.6 |
| CC(=O)N1CCC[C@H]1C(=O)N[C@H](C(=O)N[C@@H](C)C(=O)N[C@@H](CCCCN)C(=O)N[C@@H](C)C(=O)C(=O)NCCCCc1ccccc1)C(C)C (Ac-PVAK[X1]-{NH(4-phenylbutyl)}) | 330 nM |  | 712 nM |  |
| CCCCc1ccc(OCC[C@H](Cc2ccccc2)NC(=O)C(=O)[C@H](C)NC(=O)[C@H](Cc2c[nH]cn2)NC(=O)[C@H](CCCNC(=N)N)NC(=O)[C@@H](NC(C)=O)C(C)C)cc1 | 1.9 nM | 131 nM |  | Ki [1]: 0.7 nM |
| CC(=O)N[C@H](C(=O)N[C@@H](CCCNC(=N)N)C(=O)N[C@@H](Cc1c[nH]cn1)C(=O)N[C@@H](C)C(=O)C(=O)N[C@H](COCc1ccccc1)Cc1ccccc1)C(C)C | 2.5 nM | 173 nM | 5390 nM | Ki [1]: 1.4 nM |
| CC(=O)N[C@H](C(=O)N[C@@H](CCCNC(=N)N)C(=O)N[C@@H](Cc1c[nH]cn1)C(=O)N[C@@H](C)C(=O)C(=O)NCCc1ccccc1)C(C)C | 56.1 nM | 1610 nM |  |  |
| CC(C)CC(=O)N[C@H](C(=O)N[C@@H](C)C(=O)N[C@@H](CCCCN)C(=O)N[C@@H](C)C(=O)C(=O)NCCCCc1ccccc1)C(C)C |  |  | 236 nM |  |
| CC(C)CC(=O)N[C@@H](CCCNC(=N)N)C(=O)N[C@@H](Cc1c[nH]cn1)C(=O)N[C@@H](C)C(=O)C(=O)N[C@H](COCc1ccccc1)Cc1ccccc1 | 2.3 nM | 337 nM |  |  |
| CC(=O)N[C@H](C(=O)N[C@@H](CCCNC(=N)N)C(=O)N[C@@H](Cc1c[nH]cn1)C(=O)N[C@@H](C)C(=O)C(=O)NCCCCc1ccccc1)C(C)C | 44.4 nM | 1470 nM | 6210 nM |  |
| CC(=O)N1CCC[C@H]1C(=O)N[C@H](C(=O)N[C@@H](C)C(=O)N[C@@H](CCCCN)C(=O)N[C@@H](C)C(=O)C(=O)N[C@H](COCc1ccccc1)Cc1ccccc1)C(C)C (Ac-PVAK[X1]-{Pheol(OBn)}) | 5.6 nM |  | 768 nM |  |
| CC(=O)N[C@H](C(=O)N[C@@H](CCCNC(=N)N)C(=O)N[C@@H](Cc1c[nH]cn1)C(=O)N[C@@H](C)C(=O)C(=O)NC(CCCc1ccccc1)Cc1ccccc1)C(C)C (mixture of isomers) | 2.3 nM | 123 nM |  | Ki [1]: 1.3 nM |
| CC(=O)N[C@@H](C)C(=O)N[C@H](C(=O)N[C@@H](Cc1ccccc1)C(=O)N[C@@H](CC(C)C)C(=O)N[C@@H](C)C(=O)C(=O)N[C@H](COCc1ccccc1)Cc1ccccc1)C(C)C (Ac-AVFL[X1]-{Pheol(OBn)}) | 14.8 nM |  | 55500 nM |  |
